Measurements taken from the Deep4Chem optical property database.

Test: solvent given as SMILES

Compound `c1ccc(-c2cc(-c3ccc(N(c4ccccc4)c4ccccc4)cc3)cc(-c3ccccc3)n2)cc1` has an emission maximum (in CC#N) of 489 nm, an emission maximum (in CCCCCC) of 393 nm and an emission maximum (in CCO) of 505 nm. For the same compound, the emission maximum (in CO) was 524 nm and the emission maximum (in ClCCl) was 476 nm.

`CN(C)c1ccc(/C=C/C=C2\CC/C(=C\C=C\c3ccc(N(C)C)cc3)C2=O)cc1` gave an emission maximum (in C1CCCCC1) of 500 nm, an emission maximum (in CC#N) of 717 nm and an emission maximum (in CC(C)=O) of 694 nm. For the same compound, the emission maximum (in CC(C)O) was 718 nm, the emission maximum (in CCCCCC) was 496 nm and the emission maximum (in CCCCO) was 739 nm. For the same compound, the emission maximum (in CCCO) was 740 nm, the emission maximum (in CCO) was 744 nm and the emission maximum (in CCOC(C)=O) was 644 nm. For the same compound, the emission maximum (in CCOCC) was 586 nm, the emission maximum (in CN(C)C=O) was 715 nm and the emission maximum (in CO) was 735 nm. It also gave an emission maximum (in CS(C)=O) of 727 nm, an emission maximum (in Cc1ccccc1) of 553 nm and an emission maximum (in ClC(Cl)(Cl)Cl) of 537 nm. The emission maximum (in ClCCl) was 672 nm, the emission maximum (in OCC(F)(F)F) was 764 nm and the emission maximum (in S=C=S) was 568 nm. For the same compound, the emission maximum (in c1ccccc1) was 567 nm and the emission maximum (in c1ccncc1) was 681 nm.

Work on `c1ccc(-c2ccc(-c3ccc(-n4c5ccccc5c5ccccc54)cc3)c3nsnc23)cc1` yielded an emission maximum (in C1CCOC1) of 527 nm, an emission maximum (in CC(C)=O) of 562 nm and an emission maximum (in CCCCCC) of 481 nm. For the same compound, the emission maximum (in CCOCC) was 504 nm.

`CCCN(c1ccccc1)c1ccc2c(c1)C(CC)(CC)c1cc(/C=C/c3ccc(/C=C(\C#N)C(=O)O)s3)ccc1-2` gave an emission maximum (in C1CCOC1) of 572 nm, an emission maximum (in C1COCCO1) of 617 nm and an emission maximum (in CC#N) of 531 nm. It also gave an emission maximum (in CC(C)=O) of 575 nm, an emission maximum (in CCOC(C)=O) of 552 nm and an emission maximum (in CN(C)C=O) of 593 nm. The emission maximum (in CS(C)=O) was 514 nm and the emission maximum (in ClCCl) was 600 nm.

Work on `C(#Cc1ccc(C#Cc2ccc(C#Cc3ccccc3)cc2)cc1)c1ccccc1` yielded an emission maximum (in ClC(Cl)Cl) of 387 nm.

In the case of `COc1ccc(C2=Cc3ccccc3P2(=O)c2ccccc2)cc1` (centres undefined), the emission maximum (in C1CCOC1) is reported as 443 nm and the emission maximum (in ClCCl) is reported as 454 nm.

Compound `N#Cc1cc(N2c3ccccc3Sc3ccccc32)c(N2c3ccccc3Sc3ccccc32)cc1C#N` has an emission maximum (in c1ccc2c(c1)c1ccccc1n2-c1ccc(-c2ccc(-n3c4ccccc4c4ccccc43)cc2)cc1) of 605 nm.

With `c1ccc2c(c1)OP1(=NP3(=NP(Oc4ccc5ccc6cccc7ccc4c5c67)(Oc4ccc5ccc6cccc7ccc4c5c67)=N1)Oc1ccccc1-c1ccccc1O3)Oc1ccccc1-2` the emission maximum (in ClCCl) was 463 nm.

In the case of `Cc1ccc(-n2c3ccccc3c3cc(C(=C(C#N)C#N)c4ccccc4)ccc32)cc1`, the emission maximum (in C1CCOC1) is reported as 527 nm, the emission maximum (in CC#N) is reported as 545 nm and the emission maximum (in CC(C)=O) is reported as 567 nm. The emission maximum (in CCOC(C)=O) was 540 nm, the emission maximum (in CO) was 583 nm and the emission maximum (in CS(C)=O) was 591 nm. For the same compound, the emission maximum (in Cc1ccccc1) was 517 nm and the emission maximum (in ClC(Cl)Cl) was 546 nm.

Work on `CCN1C(=O)C(C2C(=O)c3c4ccccc4cc4cc5ccccc5c2c34)SC1=S` (centres undefined) yielded an emission maximum (in C1CCOC1) of 570 nm, an emission maximum (in CC#N) of 593 nm and an emission maximum (in CCCCCC) of 539 nm. The emission maximum (in Cc1ccccc1) was 563 nm and the emission maximum (in ClCCl) was 582 nm.

With `CC[Si](CC)(CC)c1cc2ccc3cccc4ccc(c1C(=O)NC(C)(C)C)c2c34` the emission maximum (in ClC(Cl)Cl) was 383 nm.

`C[Si](C)(C)C#CC(C#C[Si](C)(C)C)=Cc1ccc(C=C(C#C[Si](C)(C)C)C#C[Si](C)(C)C)s1` gave an emission maximum (in ClC(Cl)Cl) of 475 nm.

For `c1ccc(N(c2ccccc2)c2cc3c4c(c2)N(c2ccccc2)c2cc5c(cc2B4c2ccccc2N3c2ccccc2)B2c3ccccc3N(c3ccccc3)c3cc(N(c4ccccc4)c4ccccc4)cc(c32)N5c2ccccc2)cc1`, the emission maximum (in Cc1ccccc1) was 468 nm and the emission maximum (in Cc1ccccc1-c1cccc(Oc2cc3c4c(c2)Oc2cc(-c5ccccc5C)ccc2B4c2ccc(-c4ccccc4C)cc2O3)c1) was 473 nm.

Work on `CN(C)c1ccc(/C=C(\C#N)c2nc3ccccc3s2)cc1` yielded an emission maximum (in C1CCCCC1) of 500 nm and an emission maximum (in CO) of 520 nm.

In the case of `Cn1c(=O)c(/N=N/c2cc(S(=O)(=O)O)ccc2C(=O)O)c(O)c2ccccc21`, the emission maximum (in C1CCOC1) is reported as 523 nm, the emission maximum (in CC(C)=O) is reported as 538 nm and the emission maximum (in CCOC(C)=O) is reported as 528 nm. For the same compound, the emission maximum (in CO) was 532 nm, the emission maximum (in CS(C)=O) was 486 nm and the emission maximum (in Cc1ccccc1) was 509 nm. The emission maximum (in ClCCl) was 516 nm and the emission maximum (in O) was 553 nm.

Compound `c1cc2c3c4c5c(cccc5cc3c1)-c1cccn1B4n1cccc1-2` has an emission maximum (in C1CCOC1) of 601 nm.

Work on `CCn1c2ccccc2sc2c(C#N)c3[nH]c4ccccc4sc3c(C#N)c21` yielded an emission maximum (in ClC(Cl)Cl) of 615 nm.

Work on `c1ccc(C2CSC(c3c4ccc(=[N+]5CCCCC5)cc-4oc4cc(N5CCCCC5)ccc34)SC2)cc1` (centres undefined) yielded an emission maximum (in CO) of 606.35 nm.

Compound `COC(=O)c1c2ccccc2nc2ccccc12` has an emission maximum (in C1CCOC1) of 418 nm, an emission maximum (in C1COCCO1) of 420 nm and an emission maximum (in CC#N) of 422 nm. It also gave an emission maximum (in CCCCCO) of 432 nm, an emission maximum (in CCCCO) of 431 nm and an emission maximum (in CCCO) of 430 nm. The emission maximum (in CCO) was 432 nm, the emission maximum (in CO) was 432 nm and the emission maximum (in COCCOC) was 420 nm. The emission maximum (in ClC(Cl)Cl) was 428 nm, the emission maximum (in ClCCl) was 422 nm and the emission maximum (in OCCO) was 418 nm.
